For data set [1] the following is noted: relative to sugar; cited from earlier work.
Data set [2] in a line: solubility in water or acidic aqueous solution. Type of data set: physicochemical. To be noted: at 25° C.

Results on two compounds are retold here after patent US4256836A, “Addition compound of dipeptide derivative and amino acid derivative” (Toyo Soda Manufacturing Co. Ltd., priority 1977, dated 1981).

Where a SMILES comes first, the peptide text is derived from it. The star is where a group is joined. Cbz = O=C(OCc1ccccc1)*

Consider `COC(=O)[C@H](Cc1ccccc1)NC(=O)[C@@H](N)CC(=O)O` [α-L-Aspartyl-L-phenylalanine methyl ester] (H-Asp-Phe-OMe), for which the sweetness entry in data set [1] was “about 200 times of that of sugar”.
As for `COC(=O)[C@H](Cc1ccccc1)NC(=O)[C@H](CC(=O)O)NC(=O)OCc1ccccc1` (Cbz-Asp-Phe-OMe), the solubility in water in data set [2] was 0.028 g/100 g water. In addition, in data set [2] (diluted hydrochloric acid (10^-2 M)), the “solubility in diluted hydrochloric acid” value is given as 0.017 g/100 g diluted hydrochloric acid (10^-2 M).
